Test results as given in PMC11969009 (Nature Communications, 2025).
Where “and” joins values, the source holds several entries; their conditions need not be identical. Equal entries are not always repeated. Where two headings read alike, the source gives them in different places.

Legend:
Cezanne = Cezanne (Homo sapiens, UniProt Q6GQQ9); assay type: biochemical
SARS-CoV-2 PLpro [1] = molecular target: T1, SARS-CoV-2 PLpro (Severe acute respiratory syndrome coronavirus 2, UniProt P0DTD1)
SARS-CoV-2 PLpro [2] = molecular target: T1, SARS-CoV-2 PLpro; assay: biochemical; design: inhibition of SARS-CoV-2 PLpro, UbRh dose-response replicate value: unit: %; settings: for IC50: IC50 (UbRh) SARS-CoV-2 PLpro
SARS-CoV-2 PLpro [3] = molecular target: T1, SARS-CoV-2 PLpro; assay: cell-based; assay type: cell-based
[4] = system: panel of human DUBs (ATXN3, Cezanne, OTUD1, USP10, USP21, UCHL3); assay type: biochemical
USP21 = USP21 (Homo sapiens, UniProt Q9UK80); assay type: biochemical
MERS-CoV PLpro = MERS-CoV PLpro (Middle East respiratory syndrome-related coronavirus, UniProt K9N7C7); assay type: biochemical; design: unit: %
[5] = system: SARS-CoV-2 clinical isolate VIC001; assay: microbe, parasite or virus in culture; assay type: cell-based; settings: Severe acute respiratory syndrome coronavirus 2, Vero, read-out: Antiviral EC50 (plaque assay)
UCHL3 = UCHL3 (Homo sapiens, UniProt P15374); assay type: biochemical
OTUD1 = OTUD1 (Homo sapiens, UniProt Q5VV17); assay type: biochemical
SARS-CoV-2 PLpro [6] = molecular target: T1, SARS-CoV-2 PLpro; assay: biochemical; assay type: binding
ATXN3 = ATXN3 (Homo sapiens, UniProt P54252); assay type: biochemical
USP10 = USP10 (Homo sapiens, UniProt Q14694); assay type: biochemical
SARS-CoV PLpro = SARS-CoV PLpro (Severe acute respiratory syndrome coronavirus, UniProt P0C6X7); assay: biochemical; design: inhibition of SARS-CoV PLpro, UbRh dose-response replicate value: unit: %

Chain of MERS-CoV PLpro (K9N7C7 1482-1803 limits assumed): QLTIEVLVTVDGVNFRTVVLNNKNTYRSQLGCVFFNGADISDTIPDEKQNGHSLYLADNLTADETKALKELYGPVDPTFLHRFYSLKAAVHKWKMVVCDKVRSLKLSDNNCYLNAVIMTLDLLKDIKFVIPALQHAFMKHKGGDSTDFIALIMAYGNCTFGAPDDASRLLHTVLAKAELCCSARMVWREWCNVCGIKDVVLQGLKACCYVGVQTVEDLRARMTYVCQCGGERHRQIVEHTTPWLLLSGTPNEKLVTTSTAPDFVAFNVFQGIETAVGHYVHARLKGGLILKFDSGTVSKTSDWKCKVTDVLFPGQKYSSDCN
Chain of Cezanne (Q6GQQ9 whole entry): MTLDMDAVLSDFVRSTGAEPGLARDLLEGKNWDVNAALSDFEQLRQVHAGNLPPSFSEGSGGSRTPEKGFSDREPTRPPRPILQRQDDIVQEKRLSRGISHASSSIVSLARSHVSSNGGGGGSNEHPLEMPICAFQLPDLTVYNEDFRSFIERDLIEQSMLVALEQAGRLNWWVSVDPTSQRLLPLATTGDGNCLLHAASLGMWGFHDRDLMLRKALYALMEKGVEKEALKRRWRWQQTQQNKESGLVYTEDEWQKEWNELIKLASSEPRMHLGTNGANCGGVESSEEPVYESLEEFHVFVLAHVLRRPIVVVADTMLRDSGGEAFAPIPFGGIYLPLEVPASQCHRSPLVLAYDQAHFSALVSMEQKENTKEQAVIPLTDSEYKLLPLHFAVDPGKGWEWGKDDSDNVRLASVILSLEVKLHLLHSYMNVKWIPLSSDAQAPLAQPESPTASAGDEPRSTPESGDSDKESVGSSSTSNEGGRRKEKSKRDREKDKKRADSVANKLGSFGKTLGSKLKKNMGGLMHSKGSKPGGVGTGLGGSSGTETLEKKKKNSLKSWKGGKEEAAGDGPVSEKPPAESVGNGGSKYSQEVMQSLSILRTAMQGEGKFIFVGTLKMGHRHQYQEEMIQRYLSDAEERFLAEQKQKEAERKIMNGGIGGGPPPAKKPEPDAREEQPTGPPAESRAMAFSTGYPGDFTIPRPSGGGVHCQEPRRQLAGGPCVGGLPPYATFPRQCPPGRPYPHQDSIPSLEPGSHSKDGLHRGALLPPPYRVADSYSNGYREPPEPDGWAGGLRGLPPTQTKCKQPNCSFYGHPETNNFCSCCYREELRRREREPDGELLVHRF
Chain of OTUD1 (Q5VV17 whole entry): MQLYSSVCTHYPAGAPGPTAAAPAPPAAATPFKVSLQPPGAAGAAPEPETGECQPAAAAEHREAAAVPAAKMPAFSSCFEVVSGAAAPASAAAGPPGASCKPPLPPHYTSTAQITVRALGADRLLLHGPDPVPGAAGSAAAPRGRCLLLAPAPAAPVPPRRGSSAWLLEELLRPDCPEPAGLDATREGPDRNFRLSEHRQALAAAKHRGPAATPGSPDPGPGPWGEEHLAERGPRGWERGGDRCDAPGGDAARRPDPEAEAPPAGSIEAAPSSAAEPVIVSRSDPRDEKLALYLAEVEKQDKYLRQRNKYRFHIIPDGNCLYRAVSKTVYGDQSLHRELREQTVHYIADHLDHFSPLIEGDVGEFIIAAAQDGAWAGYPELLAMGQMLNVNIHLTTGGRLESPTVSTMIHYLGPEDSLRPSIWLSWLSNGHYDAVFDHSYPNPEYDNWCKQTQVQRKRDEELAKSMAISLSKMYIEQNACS
Chain of UCHL3 (P15374 whole entry): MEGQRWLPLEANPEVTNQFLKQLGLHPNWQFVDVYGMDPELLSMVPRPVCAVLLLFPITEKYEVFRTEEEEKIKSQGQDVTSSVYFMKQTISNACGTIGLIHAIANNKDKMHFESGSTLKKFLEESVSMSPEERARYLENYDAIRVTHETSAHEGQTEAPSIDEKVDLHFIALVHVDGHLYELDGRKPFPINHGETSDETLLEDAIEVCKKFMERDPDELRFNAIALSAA
Chain of USP21 (Q9UK80 whole entry): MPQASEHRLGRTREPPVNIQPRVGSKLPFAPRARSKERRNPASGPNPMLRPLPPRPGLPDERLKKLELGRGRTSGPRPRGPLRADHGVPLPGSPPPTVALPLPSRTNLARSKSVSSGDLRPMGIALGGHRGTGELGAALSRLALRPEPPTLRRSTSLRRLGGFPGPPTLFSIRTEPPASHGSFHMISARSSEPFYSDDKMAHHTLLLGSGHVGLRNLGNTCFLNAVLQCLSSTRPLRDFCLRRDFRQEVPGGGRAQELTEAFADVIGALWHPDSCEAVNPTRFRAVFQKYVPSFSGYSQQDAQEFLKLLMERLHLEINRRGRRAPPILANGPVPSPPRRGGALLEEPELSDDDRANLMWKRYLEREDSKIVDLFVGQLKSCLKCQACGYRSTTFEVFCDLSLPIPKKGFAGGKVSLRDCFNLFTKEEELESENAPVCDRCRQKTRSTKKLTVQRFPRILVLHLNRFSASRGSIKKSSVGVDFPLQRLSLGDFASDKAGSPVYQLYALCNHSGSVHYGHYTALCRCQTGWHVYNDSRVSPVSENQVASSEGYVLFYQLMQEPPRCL
Chain of USP10 (Q14694 whole entry): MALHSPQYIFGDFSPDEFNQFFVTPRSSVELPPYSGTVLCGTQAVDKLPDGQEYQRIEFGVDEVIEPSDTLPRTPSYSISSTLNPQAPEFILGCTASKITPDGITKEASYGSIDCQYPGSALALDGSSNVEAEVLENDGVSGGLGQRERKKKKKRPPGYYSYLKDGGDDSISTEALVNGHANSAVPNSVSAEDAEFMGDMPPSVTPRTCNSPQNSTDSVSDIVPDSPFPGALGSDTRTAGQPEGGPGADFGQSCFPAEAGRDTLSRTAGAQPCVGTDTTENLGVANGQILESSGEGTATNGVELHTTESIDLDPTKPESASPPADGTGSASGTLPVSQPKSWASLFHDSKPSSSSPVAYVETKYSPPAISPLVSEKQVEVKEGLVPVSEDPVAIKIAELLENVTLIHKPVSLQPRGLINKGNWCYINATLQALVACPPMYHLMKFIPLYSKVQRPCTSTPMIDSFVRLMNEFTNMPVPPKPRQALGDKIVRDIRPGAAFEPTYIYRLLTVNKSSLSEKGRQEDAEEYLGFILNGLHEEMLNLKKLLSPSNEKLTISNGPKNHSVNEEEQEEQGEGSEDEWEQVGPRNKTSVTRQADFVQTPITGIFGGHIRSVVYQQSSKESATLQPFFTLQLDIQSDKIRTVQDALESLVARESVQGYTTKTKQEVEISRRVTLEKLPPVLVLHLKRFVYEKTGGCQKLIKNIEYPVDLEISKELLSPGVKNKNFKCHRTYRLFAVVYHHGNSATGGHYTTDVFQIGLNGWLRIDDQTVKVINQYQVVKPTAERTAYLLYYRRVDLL
Chain of ATXN3 (P54252 whole entry): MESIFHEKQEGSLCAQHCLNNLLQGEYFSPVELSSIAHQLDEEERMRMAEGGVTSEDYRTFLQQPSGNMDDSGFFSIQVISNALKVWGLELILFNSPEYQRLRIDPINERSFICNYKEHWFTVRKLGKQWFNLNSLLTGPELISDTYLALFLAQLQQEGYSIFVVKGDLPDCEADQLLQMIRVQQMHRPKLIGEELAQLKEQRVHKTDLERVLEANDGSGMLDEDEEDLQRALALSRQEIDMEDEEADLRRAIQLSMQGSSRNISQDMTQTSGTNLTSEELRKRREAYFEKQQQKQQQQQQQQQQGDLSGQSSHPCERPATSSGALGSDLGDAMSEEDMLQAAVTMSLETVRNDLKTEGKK

SMILES: COc1ccc2cc(C(=O)C3CCCN(C4CCCC4)C3)ccc2c1 (centres unmarked) [WEHI-P1]
- inhibition of Cezanne, UbRh dose-response replicate value (Cezanne): -18.912 and -15.6278 and -2.351 and 1.9841 and -10.3668 and -26.3356 and -4.177 and -7.241 and -8.329 and -15.5113 and -9.927 and -0.3728 and -12.3899 and 0.2487 and -4.422 and -3.858 and -10.5494 and -3.083 and 1.0161 and -4.6404
- inhibition of Cezanne, UbRh dose-response replicate value (Cezanne; Conc 0.00498 µM): -5.218 and -11.645 and -1.408 and -0.02766
- inhibition of Cezanne, UbRh dose-response replicate value (Cezanne; Conc 0.0149 µM): -1.15 and -11.2131 and -3.066 and -2.486
- inhibition of Cezanne, UbRh dose-response replicate value (Cezanne; Conc 0.0448 µM): -8.614 and -15.6484 and -3.285 and 0.7467
- inhibition of Cezanne, UbRh dose-response replicate value (Cezanne; Conc 3.63 µM): -15.9321 and -15.0246 and -5.238 and -9.8
- inhibition of Cezanne, UbRh dose-response replicate value (Cezanne; Conc 98 µM): -30.6124 and -29.2216 and 3.466 and 11.4705
- Molar Mass (kDa) (SARS-CoV-2 PLpro [1]): 32.7945 kDa and 33.2145 kDa and 33.2745 kDa
- observed molar mass of PLpro (SEC-MALS) (SARS-CoV-2 PLpro [1]): 34.9 kDa
- inhibition of SARS-CoV-2 PLpro, UbRh dose-response replicate value (SARS-CoV-2 PLpro [2]; Conc 0.00498 µM): -13.6732 and 2.3131 and -7.154 and -11.0795 and 7.963 and 4.4501 and -10.0607 and -6.545 and -6.343 and -0.9072 and -6.992 and -7.263 and -7.665
- inhibition of SARS-CoV-2 PLpro, UbRh dose-response replicate value (SARS-CoV-2 PLpro [2]; Conc 0.0149 µM): -0.6879 and 3.256 and -8.137 and -12.3628 and 2.155 and 5.8571 and -3.891 and -5.469 and -7.734 and -5.926 and -7.3449
- inhibition of SARS-CoV-2 PLpro, UbRh dose-response replicate value (SARS-CoV-2 PLpro [2]; Conc 0.0448 µM): 1.291 and 3.348 and -5.506 and -4.578 and 2.528 and 6.172 and -28.1035 and -26.7808 and -16.0105 and -8.021 and -5.978 and -3.428 and -7.448
- inhibition of SARS-CoV-2 PLpro, UbRh dose-response replicate value (SARS-CoV-2 PLpro [2]; Conc 3.63 µM): 55.1403 and 49.1297 and 72.2398 and 55.1118 and 68.8818 and 68.3038 and 70.3435 and 68.1584 and 58.3924 and 61.1283 and 62.8891 and 58.2582 and 68.987
- inhibition of SARS-CoV-2 PLpro, UbRh dose-response replicate value (SARS-CoV-2 PLpro [2]; Conc 98 µM): 124.948 and 118.973 and 118.719 and 93.4483 and 92.6536 and 95.3254 and 94.6236 and 97.9546 and 83.9689 and 107.904 and 110.814 and 103.242 and 108.864
- IC50 (SARS-CoV-2 PLpro [2]): 2600 nM
- IC50 (SARS-CoV-2 PLpro [2]; Supplementary Fig. 2b): 2600 nM
- EC50 (SARS-CoV-2 PLpro [3]): > 20 µM
- cross-reactivity in a panel of human DUBs [4]: no cross-reactivity
- inhibition of USP21, UbRh dose-response replicate value (USP21): -17.3591 and -12.2032 and -18.6472 and -15.4853 and -14.4522 and -19.2052 and -17.9515 and -18.065 and -8.946 and -2.6161 and -10.7527 and -20.9333 and -7.844 and -9.819 and -13.8068 and -21.9255 and -4.154 and -2.302 and -19.2663 and -19.4961
- inhibition of USP21, UbRh dose-response replicate value (USP21; Conc 0.00498 µM): -6.669 and -13.4551 and -20.5516 and -18.4137
- inhibition of USP21, UbRh dose-response replicate value (USP21; Conc 0.0149 µM): -7.696 and -8.6697 and -11.755 and -9.346
- inhibition of USP21, UbRh dose-response replicate value (USP21; Conc 0.0448 µM): -2.649 and -22.6918 and -12.9296
- inhibition of USP21, UbRh dose-response replicate value (USP21; Conc 3.63 µM): -16.692 and -5.223 and -23.134 and -16.0626
- inhibition of USP21, UbRh dose-response replicate value (USP21; Conc 98 µM): -13.9863 and -21.5031 and -20.8818 and -12.5688
- inhibition of MERS-CoV PLpro, UbRh dose-response replicate value (MERS-CoV PLpro; Conc 0.00498 µM): -4.614 and -3.364 and 0.3636 and -5.453 and 6.667 and 6.005 and 3.997 and 2.909
- inhibition of MERS-CoV PLpro, UbRh dose-response replicate value (MERS-CoV PLpro; Conc 0.0149 µM): -3.576 and -5.738 and -4.053 and -6.88 and 8.95 and 6.88 and 9.641 and 2.2309
- inhibition of MERS-CoV PLpro, UbRh dose-response replicate value (MERS-CoV PLpro; Conc 0.0448 µM): -7.082 and -11.2097 and -12.434 and -8.665 and 6.324 and 5.9119 and 5.395 and 2.288
- inhibition of MERS-CoV PLpro, UbRh dose-response replicate value (MERS-CoV PLpro; Conc 3.63 µM): -1.223 and -11.7007 and -12.14 and -8.237 and 5.5159 and 6.719
- inhibition of MERS-CoV PLpro, UbRh dose-response replicate value (MERS-CoV PLpro; Conc 98 µM): -14.4158 and -18.412 and -13.4114 and -9.9342 and 9.6505 and 10.1326 and 6.766 and 4.38
- EC50 [5]: > 2000 nM
- inhibition of UCHL3, UbRh dose-response replicate value (UCHL3): -15.7962 and -10.6437 and -3.089 and -8.07 and -1.79 and -9.314 and -4.512 and -11.432 and -8.325 and -0.3429 and -5.346 and 2.661 and -3.761 and -0.9211 and -0.1651 and 0.1836 and -9.635 and -0.5542 and -7.392
- inhibition of UCHL3, UbRh dose-response replicate value (UCHL3; Conc 0.00498 µM): -2.717 and -5.843 and -1.232 and -3.133
- inhibition of UCHL3, UbRh dose-response replicate value (UCHL3; Conc 0.0149 µM): -3.556 and -7.101 and -2.8889 and -5.9018
- inhibition of UCHL3, UbRh dose-response replicate value (UCHL3; Conc 0.0448 µM): -13.5671 and -9.936 and 2.559 and -5.235
- inhibition of UCHL3, UbRh dose-response replicate value (UCHL3; Conc 3.63 µM): -2.824 and -12.2743 and -7.514 and -7.892
- inhibition of UCHL3, UbRh dose-response replicate value (UCHL3; Conc 98 µM): -24.2494 and -16.3148 and -12.8948 and -13.0616
- inhibition of OTUD1, UbRh dose-response replicate value (OTUD1): -10.6037 and -11.2887 and -9.792 and -7.833 and -12.7647 and -0.9075 and 2.163 and -5.7654 and -7.285 and -0.8912 and -5.258 and -7.97 and -1.274 and -2.017 and -4.922 and 1.155 and -8.198 and 3.097 and -7.799 and -6.802
- inhibition of OTUD1, UbRh dose-response replicate value (OTUD1; Conc 0.00498 µM): -2.098 and -3.857
- inhibition of OTUD1, UbRh dose-response replicate value (OTUD1; Conc 0.0149 µM): 0.5359 and 5.168 and -4.672 and 0.608
- inhibition of OTUD1, UbRh dose-response replicate value (OTUD1; Conc 0.0448 µM): 0.07106 and -1.381 and -0.3944 and -8.021
- inhibition of OTUD1, UbRh dose-response replicate value (OTUD1; Conc 3.63 µM): -3.7862 and -2.718 and -1.038 and -8.072
- inhibition of OTUD1, UbRh dose-response replicate value (OTUD1; Conc 98 µM): -27.4599 and -27.4028
- Kd (SARS-CoV-2 PLpro [6]): 8.3 µM
- inhibition of ATXN3, UbRh dose-response replicate value (ATXN3): -8.641 and -11.1993 and -4.869 and 4.344 and -19.3823 and -18.001 and -0.7368 and -2.308 and -5.209 and -10.7506 and -7.279 and -8.7353 and -8.48 and -12.1184 and -9.5356 and 0.5603 and -15.7867 and -11.4036 and -7.524
- inhibition of ATXN3, UbRh dose-response replicate value (ATXN3; Conc 0.00498 µM): -12.0566 and -16.4021 and -4.426 and -13.5708
- inhibition of ATXN3, UbRh dose-response replicate value (ATXN3; Conc 0.0149 µM): -11.0193 and -9.528 and -12.1815 and -14.805
- inhibition of ATXN3, UbRh dose-response replicate value (ATXN3; Conc 0.0448 µM): -8.047 and -9.745 and -7.569 and -8.486
- inhibition of ATXN3, UbRh dose-response replicate value (ATXN3; Conc 3.63 µM): -16.703 and -12.2662 and -13.9462 and -9.635
- inhibition of ATXN3, UbRh dose-response replicate value (ATXN3; Conc 98 µM): -16.0742 and -15.5502
- inhibition of USP10, UbRh dose-response replicate value (USP10): -17.9764 and -33.546 and -1.777 and -1.005 and -2.268 and -5.196 and 1.437 and 7.331 and 6.946 and -2.385 and 10.5944 and 12.4488 and -3.943 and -14.76 and 8.848 and 13.2594 and -3.1801
- inhibition of USP10, UbRh dose-response replicate value (USP10; Conc 0.00498 µM): 10.1443 and 12.7446 and 2.857 and 1.607
- inhibition of USP10, UbRh dose-response replicate value (USP10; Conc 0.0149 µM): 1.87 and 11.8374 and 1.723 and 2.761
- inhibition of USP10, UbRh dose-response replicate value (USP10; Conc 0.0448 µM): 5.874 and 6.2633 and -3.914
- inhibition of USP10, UbRh dose-response replicate value (USP10; Conc 3.63 µM): -1.745 and -4.256 and -2.239 and 0.7005
- inhibition of USP10, UbRh dose-response replicate value (USP10; Conc 98 µM): -22.6046 and 5.737 and 3.4
- inhibition of SARS-CoV PLpro, UbRh dose-response replicate value (SARS-CoV PLpro; Conc 3.63 µM): 43.26 and 41.4233 and 40.1519 and 56.4827 and 56.7648 and 53.2219
- inhibition at 3.63 µM (SARS-CoV PLpro; Conc 3.63 µM, read-out: inhibition of SARS-CoV PLpro, UbRh dose-response replicate value): 43.3%
- inhibition of SARS-CoV PLpro, UbRh dose-response replicate value (SARS-CoV PLpro; Conc 98 µM): 89.3568 and 87.1144 and 87.3043 and 96.6611 and 96.2974 and 95.7026 and 96.1294
- inhibition at 98 µM (SARS-CoV PLpro; Conc 98 µM, read-out: inhibition of SARS-CoV PLpro, UbRh dose-response replicate value): 89.2%
- inhibition at […] (SARS-CoV PLpro; read-out: inhibition of SARS-CoV PLpro, UbRh dose-response replicate value): 84.6% and 69.7%
